One assay concerns JB6 P+ cells. As to the kind of experiment: Anchorage-independent cell growth assay (EGF-induced neoplastic transformation). It counts as cell-based, mouse. Particulars: EGF 10 ng/ml, different concentrations. How it is done:
Cells were exposed to EGF (10 ng/ml) and treated with increasing concentrations of compound 1. Representative photographs are shown and data are presented as mean values±S.D. from triplicate experiments. […] Cells were treated with different concentrations of compound 1 for several days and cell proliferation was determined by a crystal violet staining assay.
Cells (8×10^3/well) were seeded into 6-well plates with 0.3% Basal Medium Eagle agar containing 10% FBS with epidermal growth factor (EGF, 10 ng/ml) and different concentrations of compound 1 and then cultured for 1 to 2 weeks. Colonies were scored under a microscope using the Image-Pro PLUS (v6.) computer software program (Media Cybernetics. Rockville, Md.).

Assay [1] has as its system AP-1 activity in JB6 P+ cells. As to the kind of experiment: AP-1 luciferase reporter assay, SUV-induced. The format is cell-based, mouse. Particulars: JB6 P+ cells, 1.25, 2.5 or 5 μM, dose-dependently. The procedure: The cells were cultured, treated for 4 h with different concentrations of compound 1 and then exposed to SUV (60 kJ UVA/m^2 and 2.9 kJ UVB/m^2), followed by an additional 15-minute incubation. Cells were harvested and the levels of phosphorylated and total proteins were determined by Western blot analysis with specific antibodies as indicated. […] The cells were cultured and treated with different concentrations of compound 1 for 24 h. Cells were harvested and the levels of phosphorylated and total proteins were determined by Western blot analysis with specific antibodies as indicated. […] For the luciferase assay, JB6 P+ cells stably transfected with an AP-1 luciferase reporter plasmid were cultured. After starvation for 24 h, cells were treated for 1 h with compound 1 (0, 1.25, 2.5, or 5 μM). Cells were then exposed to SUV (60 kJ UVA/m^2 and 2.9 kJ UVB/m^2) and harvested 3 h later. Luciferase activity was measured and AP-1 activity is expressed relative to control cells without SUV treatment. […] Knockdown of TOPK in A431 cell line (left). […] Luciferase and 3-galactosidase activities were measured using reagents included in the reporter assay system (right). […] Significant differences were evaluated using one-way ANOVA and the asterisks (*) indicate a significant effect (*, p<0.05; **, p<0.001; ***, p<0.0001). […]
A general note: In a reporter assay the amount or activity of a reporter protein is the signal.

With `O=C1Nc2ccc(C34CC5CC(CC(C5)C3)C4)cc2C1=NO` [compound 1, 5-(adamantan-1-yl)-3-(hydroxyimino)indolin-2-one], in the assay with JB6 P+ cells, the EGF-induced colony formation entry is “attenuated”. Also, in assay [1], the “SUV-induced transactivation of AP-1” value was “inhibited”.

The values above are taken from US10487054B2, “Therapeutic compounds” (REGENTS OF THE UNIVERSITY OF MINNESOTA, priority 2017, dated 2019).
